This note sets out measurements from patent US11028093B2, “4,6-substituted-pyrazolo[1,5-a]pyrazines as janus kinase inhibitors” (Array BioPharma Inc., priority 2014, dated 2021).

Common to all, as to assay type: biochemical
In assay [1] the target is JAK2 (Homo sapiens (Human), UniProt O60674). Description: JAK2 Inhibition Assay (Omnia kinase fluorescence peptide substrate assay, 1 mM ATP). An excerpt: (§1) The assays described in Examples A, B, C and D for the determination of Tyk2, JAK1, JAK2 and JAK3 kinase activity, respectively, utilized the Omnia® Kinase fluorescence peptide substrate-based technology (Invitrogen). The specific components of the assay mixture are described in Examples A, B, C and D. In these assays, Mg^2+ is chelated upon phosphorylation of the Omnia peptide by the kinase to form a bridge between the chelation-enhanced fluorophore Sox and the phosphate, resulting in an increase in fluorescence emission at 485 nm when excited at […]. The reactions were therefore read at excitation 360 nm and emission was measured at 485 nm every 50 seconds for 45 minutes using a PerkinElmer EnVision Multilabel Plate Reader.
Sequence of JAK2 (O60674 808-1132): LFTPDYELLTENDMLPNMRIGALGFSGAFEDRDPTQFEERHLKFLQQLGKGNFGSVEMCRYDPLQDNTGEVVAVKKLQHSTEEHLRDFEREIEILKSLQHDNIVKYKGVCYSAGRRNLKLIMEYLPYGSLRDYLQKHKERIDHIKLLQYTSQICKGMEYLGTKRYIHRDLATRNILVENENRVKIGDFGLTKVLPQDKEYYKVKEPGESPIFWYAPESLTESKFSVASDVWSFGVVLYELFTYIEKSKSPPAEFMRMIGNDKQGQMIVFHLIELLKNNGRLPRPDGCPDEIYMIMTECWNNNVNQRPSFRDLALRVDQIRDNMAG
(§2) The final buffer conditions for Tyk2, JAK1, JAK2, and JAK3 assays were as follows: 25 mM HEPES, pH 7.4, 10 mM MgCl2, 0.01% Triton X-100 and 1 mM DTT.
(§3) Two-μL aliquots of these were transferred to a fresh plate for a ten-fold intermediate dilution with assay buffer. Five-μL aliquots of the diluted compounds were then transferred to 20-μL of assay mixtures described in Examples A, B, C and D for a final concentration of DMSO of 2%. […] For each plate, percent of control (POC) values were calculated for each well according to the following equation:
(§4) where Xmax=Average Uninhibited Controls • Xmin=Average Background IC50's were estimated from the POC's using a standard 4-parameter logistic model:
(§5) where A=Minimum Y (Bottom Asymptote) • B=Maximum Y (Top Asymptote) • C=EC50 • D=Slope Factor • X=Compound Concentration (nM) • Y=POC
(§6) The IC50 is defined as the concentration of inhibitor at which the POC equals 50 for the fitted curve.
Compounds of Formula I were screened for their ability to inhibit JAK2 using the general enzyme inhibition assay method, in which the assay mixture contained 1 mM ATP, 10 μM Omnia® Y7 peptide (Catalog # IVGN KNZ3071C, Invitrogen Corporation, Carlsbad, Calif.) and 4 nM JAK2 in a total volume of 25 μL. JAK2 was purchased from Invitrogen Corporation, Carlsbad, Calif. (catalog # IVGN PV4288).

Assay [2] addresses Human Tyk2 kinase domain (Homo sapiens (Human), UniProt P29597). Description: Tyk2 Inhibition Assay (Omnia kinase fluorescence peptide substrate assay, 1 mM ATP).
Description: as §1, §2, §3, §4, §5, §6
Compounds of Formula I were screened for their ability to inhibit Tyk2 using the general enzyme inhibition assay method, in which the assay mixture contained 1 mM ATP, 8 μM Omnia® Y12 peptide (Catalog # IVGN KPZ3121C; Invitrogen Corporation, Carlsbad, Calif.) and 1 nM Tyk2 in a total volume of 25 μL. […]

The target of assay [3] is JAK3 (Homo sapiens (Human), UniProt P52333). Description: JAK3 Inhibition Assay (Omnia kinase fluorescence peptide substrate assay, 1 mM ATP).
Sequence of JAK3 (P52333 781-1124): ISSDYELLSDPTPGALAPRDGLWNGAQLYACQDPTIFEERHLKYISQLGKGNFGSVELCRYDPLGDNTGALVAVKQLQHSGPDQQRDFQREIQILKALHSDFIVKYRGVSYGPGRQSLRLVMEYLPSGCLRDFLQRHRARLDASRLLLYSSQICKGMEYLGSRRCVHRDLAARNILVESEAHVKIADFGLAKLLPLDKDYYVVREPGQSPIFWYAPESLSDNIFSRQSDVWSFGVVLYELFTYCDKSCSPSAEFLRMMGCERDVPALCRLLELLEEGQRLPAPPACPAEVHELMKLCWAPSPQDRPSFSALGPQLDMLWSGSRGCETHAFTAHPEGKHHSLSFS
Description: as §1, §2, §3, §4, §5, §6
Compounds of Formula I were screened for their ability to inhibit JAK3 using the general enzyme inhibition assay method, in which the assay mixture contained 1 mM ATP, 10 μM Omnia® Y7 peptide (Catalog # IVGN KNZ3071C, Invitrogen Corporation, Carlsbad, Calif.) and 2 nM JAK3 in a total volume of 25 μL. JAK3 was purchased from Invitrogen Corporation, Carlsbad, Calif. (catalog # IVGN PV4080).

Assay [4] concerns the target JAK1 (Homo sapiens (Human), UniProt P23458). Description: JAK1 Inhibition Assay (Omnia kinase fluorescence peptide substrate assay, 1 mM ATP).
Description: as §1, §2
Two-μL aliquots of these were transferred to a fresh plate for a ten-fold intermediate dilution with assay buffer. Five-μL aliquots of the diluted compounds were then transferred to 20-μL of assay mixtures described in Examples A, B, C and D for a final concentration of DMSO of 2%. […] For each plate, percent of control (POC) values were calculated for each well according to the following equation: […]

The mark [5] stands for this setting: read-out: JAK2 Enzyme IC50 1 mM ATP, 1 mM ATP, averaged IC50 ranges.
Where [6] appears, read: read-out: TYK2 Enzyme IC50 1 mM ATP, 1 mM ATP, averaged IC50 ranges.

Like-named read-outs stand apart in the source and are kept apart here. Where only a bound is given, the exact number is not on record here.

Sequence of Human Tyk2 kinase domain (P29597 886-1187): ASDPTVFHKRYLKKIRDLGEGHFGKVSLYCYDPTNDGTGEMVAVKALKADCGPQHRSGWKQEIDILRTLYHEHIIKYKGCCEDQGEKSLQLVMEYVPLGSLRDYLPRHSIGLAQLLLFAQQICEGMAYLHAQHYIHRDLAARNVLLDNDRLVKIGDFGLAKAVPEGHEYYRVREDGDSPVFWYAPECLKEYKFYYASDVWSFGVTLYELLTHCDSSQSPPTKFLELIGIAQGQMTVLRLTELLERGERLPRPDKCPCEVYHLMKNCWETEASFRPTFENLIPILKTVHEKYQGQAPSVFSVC
Sequence of JAK1 (P23458 866-1154): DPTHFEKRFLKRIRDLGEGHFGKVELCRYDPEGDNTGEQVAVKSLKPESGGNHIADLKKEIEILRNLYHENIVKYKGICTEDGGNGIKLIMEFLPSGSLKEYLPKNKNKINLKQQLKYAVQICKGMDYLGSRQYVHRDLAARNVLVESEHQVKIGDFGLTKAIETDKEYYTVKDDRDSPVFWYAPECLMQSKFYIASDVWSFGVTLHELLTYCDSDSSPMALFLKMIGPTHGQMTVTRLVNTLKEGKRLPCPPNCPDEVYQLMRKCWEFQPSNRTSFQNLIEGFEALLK

As to `CCC(CC)n1cc(-c2nc(-c3cnn(C4CN(S(C)(=O)=O)C4)c3)cn3nccc23)cn1` [Example 37, 6-(1-(1-(methylsulfonyl)azetidin-3-yl)-1H-pyrazol-4-yl)-4-(1-(pentan-3-yl)-1H-pyrazol-4-yl)pyrazolo[1,5-a]pyrazine], the IC50 in assay [1] (setting [5]) was under 10 nM. `CCC1(n2cc(-c3nc(-c4cnn(C)c4)cn4nccc34)cn2)CN(S(=O)(=O)C(F)(F)F)C1` [Example 48, 4-(1-(3-ethyl-1-((trifluoromethyl)sulfonyl)azetidin-3-yl)-1H-pyrazol-4-yl)-6-(1-methyl-1H-pyrazol-4-yl)pyrazolo[1,5-a]pyrazine]: the 50% inhibitory concentration (IC50) in assay [1] (setting [5]) and in assay [2] (setting [6]) was under 10 nM each time. In assay [3], `CCC(CC)n1cc(-c2nc(-c3cnn([C@H]4CC[C@H](O)CC4)c3)cn3nccc23)cn1` [Example 118, trans-4-(4-(4-(1-(pentan-3-yl)-1H-pyrazol-4-yl)pyrazolo[1,5-a]pyrazin-6-yl)-1H-pyrazol-1-yl)cyclohexanol] yielded an IC50 of 1000 to 10000 nM.

Turning to `CCC(CC)n1cc(-c2nc(-c3cnn([C@H]4CC[C@@H](O)CC4)c3)cn3nccc23)cn1` [Example 121, cis-4-(4-(4-(1-(pentan-3-yl)-1H-pyrazol-4-yl)pyrazolo[1,5-a]pyrazin-6-yl)-1H-pyrazol-1-yl)cyclohexanol], the IC50 in assay [3] lay within 1000 to 10000 nM. Same read-out and setting: the figure for `CCC(CC)n1cc(-c2nc(-c3cnn([C@H]4C[C@@](C)(O)C4)c3)cn3nccc23)cn1` [Example 162, (1s,3 s)-1-methyl-3-(4-(4-(1-(pentan-3-yl)-1H-pyrazol-4-yl)pyrazolo[1,5-a]pyrazin-6-yl)-1H-pyrazol-1-yl)cyclobutanol] is 1000 to 10000 nM. Regarding `CC[C@@H](CC1CC1)n1cc(-c2nc(-c3cnn(C[C@@H](O)CO)c3)cn3nccc23)cn1` [Example 205, (R)-3-(4-(4-(1-((S)-1-cyclopropylbutan-2-yl)-1H-pyrazol-4-yl)pyrazolo[1,5-a]pyrazin-6-yl)-1H-pyrazol-1-yl)propane-1,2-diol], the IC50 was in the range of 100 to 1000 nM in assay [4], 1000 to 10000 nM in assay [3], 10 to 100 nM in assay [1] and 10 to 100 nM in assay [2]. “(1s,3s)-3-(4-(4-(1-(pentan- 3-yl)-1H-pyrazol-4- yl)pyrazolo[1,5-a]pyrazin- 6-yl)-1H-pyrazol-1-yl) cyclobutanecarboxamide [Example 168]”: the half-inhibitory concentration (IC50) lay in the range of 1000 to 10000 nM in assay [4] (read-out: JAK1 Enzyme IC50 1 mM ATP, 1 mM ATP, averaged IC50 ranges); 1000 to 10000 nM in assay [3] (read-out: JAK3 Enzyme IC50 1 mM ATP, 1 mM ATP, averaged IC50 ranges); 10 to 100 nM in assay [1] (setting [5]). With “(R)-3-(4-(4-(1-((S)-2,2-dimethylcyclopentyl)-1H-pyrazol-4-yl)pyrazolo[1,5-a]pyrazin-6-yl)-1H-pyrazol-1-yl)propane-1,2-diol [Example 95]”, the IC50 in assay [1] (setting [5]) and in assay [2] (setting [6]) was 1000 to 10000 nM each time.
